Experimental data as given in patent EP1935887A1, “Heterocyclic substituted carbonyl derivatives and their use as dopamine D3 receptor ligands” (Aventis Pharmaceuticals Inc., priority 2001, dated 2002).

target: T1, Cloned Human Dopamine D3 Receptors (Homo sapiens, UniProt P35462); assay: [N-Methyl-3H]Spiroperidol binding to cloned human dopamine D3 receptors; conditions: D3 Ki (nM)
T1 construct: expressed in transfected cells; membrane homogenate
Source text: [N-Methyl-^3H]Spiroperidol Binding to Cloned Human Dopamine D3 Receptors
This assay measures the in vitro activity of compounds on cloned human dopamine (D3) receptors and predicts the direct dopamine-blocking properties of putative neuropsychiatric agents at human dopamine D3 receptors.
The D3 gene was isolated from a human striatal cDNA library (Stratagene). The gene was sequenced and sub-cloned into the expression vector RC/RSV (Invitrogen). CHO (Chinese Hamster Ovary) cells were stably transfected with 10 µg of the D3/RSV plasmid using the DOTAP method from Boehringer Mannheim and 72 clones that were G418 resistant were isolated. Using mRNA and binding displacement data a single high expressing clone was identified. This clone was then grown in large batches for the purpose of developing a 96 well format assay.
• 1. One plate (10 cm) with approximately 2-3 million D3 cells per plate is incubated with 1 ml of Trypsin-EDTA at room temperature for -2 min or until cells have lifted off plates. Four ml of Ham's F12 + 10% Fetal Bovine Serum + 1% Penicillin/Streptomycin + G418 (400 µg/ml) medium are added to resuspend cells and 1 ml of this is added to each large plate (15 cm) containing 19 ml of the same medium as mentioned above. • 2. The 5 large plates are incubated at 37°C + 5% CO2 for - 3 days or until the cells are confluent. • 3. After these plates are confluent, they are split into 10 large plates. Medium is aspirated off, 2 ml of Trypsin-EDTA are added to each plate and plates are incubated at RT for 2 min or until cells have lifted off the plate. Eight ml of the F12 medium (same medium as #1 above) are added to each plate (10 ml total) to resuspend the cells and 5 ml are transferred to the 2 new plates containing 15 ml of the F12 media. • 4. The 10 large plates are incubated at 37°C + 5% CO2 for ∼ 2 days or until the cells are confluent. • 5. The 10 large plates are split into 60 large plates (using Trypsin-EDTA as #3 except 4 ml of F12 medium are added to resuspend cells and 1 ml is aliquoted to 6 new plates containing 19 ml of F12 medium each). • 6. Plates are incubated at 37°C + 5% CO2 for - 3 days or until cell are confluent. • 7. The 60 large plates are then split into 60 roller bottles (100-150 million cells/bottle). Medium is aspirated off , 2 ml of Trypsin-EDTA are added to each plate and incubated at RT for -2 minutes or until cells have lifted off plates. Eight ml of F12 medium are added to each plate to resuspend cells and the entire 10 ml are added to 1 roller bottle containing 90 ml of the F12 medium. • 8. The 60 roller bottles are immediately placed on their sides and transferred to the roller bottle incubator. They are incubated at 37°C + 5% CO2 for ~ 3-5 days. Cells are spun at 30-40% motor speed in the Forma incubator. • 9. Medium is poured off and cells are washed 2X in PBS. • 10. Cells are then scraped off in 20 ml of PBS and the bottles are rinsed again with 5 ml of PBS to remove any remaining cells. Cells are stored on ice before membrane prepration. • 11. The yield for 60 D3 roller bottles has varied from - 260-500 mg. Note: All tissue culture reagents are from Gibco-BRL.
The cells are harvested into 250 ml centrifuge tubes with 100 volumes of cold phosphate buffered saline (PBS) and spun down (1200xG for 10 min at 4°C). The medium is removed and 100 ml PBS are added to each centrifuge tube, cells are resuspened and spun down again. The PBS is removed and the final pellet is homogenized in an appropriate volume of 10% DMSO with a polytron on ice at a medium setting.
A 200 µl sample membrane homogenate is added to 200 µl of 1% SDS, vortexed and allowed to stand for 5 min. Aliquots (25, 50 and 100 µl) of this mixture are assayed in duplicate following the standard Bio-Rad DC protein assay protocol (kit catalog number 500-0112) and using reagent S. Absorbance readings are made at 750 nm (note: the most accurate protein OD readings are between 0.1-0.5 units). […]

T1 sequence (P35462 whole entry): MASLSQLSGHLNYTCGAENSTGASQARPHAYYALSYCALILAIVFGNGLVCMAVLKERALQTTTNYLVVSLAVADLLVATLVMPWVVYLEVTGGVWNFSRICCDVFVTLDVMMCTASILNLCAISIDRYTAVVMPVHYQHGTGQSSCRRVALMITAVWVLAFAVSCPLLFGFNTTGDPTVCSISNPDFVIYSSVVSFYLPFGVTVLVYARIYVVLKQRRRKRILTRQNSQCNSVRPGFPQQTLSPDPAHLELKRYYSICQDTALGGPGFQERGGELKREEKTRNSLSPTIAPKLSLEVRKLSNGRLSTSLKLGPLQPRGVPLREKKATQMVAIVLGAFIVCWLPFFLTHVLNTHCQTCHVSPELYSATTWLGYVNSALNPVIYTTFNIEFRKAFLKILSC

Q: How did the Ki turn out when `C[C@H]1CC[C@H](NC(=O)[C@@H]2C[C@H]2CN2CCN(c3noc4ccsc34)CC2)CC1` [compound 831083] was run?
A: 3.2 nM

Q: Which Ki does the source give for `Cn1nc(N2CCN(CC3CC3C(=O)NCCCn3ccnc3)CC2)c2sccc21` (centres unmarked) [compound 831673] here?
A: 23.5 nM

Q: Which Ki does the source give for `O=C(NC1CCN(CCc2cccc(Cl)c2)CC1)C1CC1CN1CCC(c2noc3ccsc23)CC1` (centres unmarked) [832573FH] here?
A: 4.52 nM

same assay, conditions: Table 2; unit inferred; read-out: d3Ki

Q: `O=C(CCCCN1CCN(c2csc3cc(F)ccc23)CC1)Nc1cccc(Oc2ccccc2)c1` [compound 822137] was tested. Which Ki did it give?
A: 36 nM

Q: How did the Ki turn out when `C[C@@]1(C(=O)NCc2cccs2)C[C@H]1CN1CCN(c2csc3cc(C(F)(F)F)ccc23)CC1` [compound 825898] was run?
A: 49 nM

Q: `C[C@@]1(C(=O)NCc2ccccc2)C[C@H]1CN1CCN(c2csc3cc(C(F)(F)F)ccc23)CC1` [compound 825896] was tested. Which Ki did it give?
A: 53.3 nM

Q: With `C[C@@]1(C(=O)NCc2ccc3c(c2)OCO3)C[C@H]1CN1CCN(c2csc3cc(C(F)(F)F)ccc23)CC1` [compound 825886] as the compound, how does the Ki read?
A: 40.2 nM

Q: With `C[C@]1(O)CC[C@@H](NC(=O)[C@@H]2C[C@H]2CN2CCN(c3csc4cc(C(F)(F)F)ccc34)CC2)CC1` [compound 817051] as the compound, how does the Ki read?
A: 3.47 nM

Q: For `CC1[C@@H](CN2CCN(c3csc4cc(C(F)(F)F)ccc34)CC2)[C@@H]1C(=O)NCC1CC1` (some centres unmarked) [compound 825872], which Ki is on record?
A: 104 nM

Q: How did the Ki turn out when `Cc1ccc(N2CCN(C[C@@H]3C[C@H]3C(=O)N[C@H]3CC[C@H](C)CC3)CC2)cc1C` [compound 817045] was run?
A: 5.36 nM

Q: How did the Ki turn out when `CCCc1cc(N2CCCN(C[C@@H]3C[C@H]3C(=O)N[C@H]3CC[C@H](C)CC3)CC2)nc(C(C)(C)C)n1` [compound 817273] was run?
A: 3.05 nM

Q: With `CCC1CCC(NC(=O)C2CC2CN2CCCN(c3cc(C(F)(F)F)nc(C(C)(C)C)n3)CC2)CC1` (centres unmarked) [compound 817260] as the compound, how does the Ki read?
A: 12.5 nM

Q: How did the Ki turn out when `C[C@H]1CC[C@H](NC(=O)[C@@H]2C[C@H]2CN2CCN(c3cccc4ccccc34)CC2)CC1` [compound 817099] was run?
A: 1.1 nM

Q: `O=C([C@@H]1C[C@H]1CN1CCN(c2csc3cc(C(F)(F)F)ccc23)CC1)N(c1ccccc1)C1CCCCC1` [compound 826886] was tested. Which Ki did it give?
A: 136 nM

Q: Which Ki does the source give for `COc1ccc(N2CCN(C[C@@H]3C[C@H]3C(=O)N[C@H]3CC[C@H](C)CC3)CC2)c(OC)c1` [compound 817094] here?
A: 8.89 nM

Q: Which Ki does the source give for `CC[C@H]1CC[C@H](NC(=O)[C@@H]2C[C@H]2CN2CCN(c3ncccc3Cl)CC2)CC1` [compound 817566] here?
A: 2.46 nM

Q: `O=C(NC1CCCCCCCC1)[C@@H]1C[C@H]1CN1CCN(c2csc3cc(C(F)(F)F)ccc23)CC1` [compound 826655] was tested. Which Ki did it give?
A: 31 nM

Q: Which Ki does the source give for `CCOC(=O)[C@H]1CC[C@H](NC(=O)CCCN2CCN(c3csc4cc(C(F)(F)F)ccc34)CC2CCc2ccccc2)CC1` (some centres unmarked) [compound 827071] here?
A: 454 nM

Q: With `CN(C(=O)CCCCN1CCN(c2csc3cc(F)ccc23)CC1)c1cccc(Oc2ccccc2)c1` [compound 822142] as the compound, how does the Ki read?
A: 39.1 nM

same assay, conditions: Table 2 part the 10th table; read-out: d3Ki

Q: How did the Ki turn out when `CCOC(=O)C1CCN(C(=O)[C@@H]2C[C@H]2CN2CCCN(c3csc4cc(F)ccc34)CC2)CC1` [compound 826871] was run?
A: 10.7 nM

Q: How did the Ki turn out when `CC1CCCN(C(=O)CCCN2CCN(c3csc4cc(C(F)(F)F)ccc34)CC2Cc2ccccc2)C1` (centres unmarked) [compound 827066] was run?
A: 209 nM

Q: For `CN(C)C1CCN(C(=O)[C@@H]2C[C@H]2CN2CCCN(c3csc4cc(F)ccc34)CC2)C1` (some centres unmarked) [compound 826883], which Ki is on record?
A: 13.4 nM

Q: For `N#CC1(c2ccccc2)CCN(C(=O)[C@@H]2C[C@H]2CN2CCN(c3csc4cc(F)ccc34)CC2)CC1` [compound 826674], which Ki is on record?
A: 48 nM

Q: `O=C([C@@H]1C[C@H]1CN1CCCN(c2csc3cc(C(F)(F)F)ccc23)CC1)N1CCC(O)CC1` [compound 826686] was tested. Which Ki did it give?
A: 26 nM

same assay, conditions: d3Ki, Table 2; unit inferred

Q: Which Ki does the source give for `CC1CCC(NC(=O)C2CC2CN2CCN(c3noc4ccsc34)CC2)CC1` (centres unmarked) [compound 818427] here?
A: 6.07 nM

same assay, conditions: d3Ki, Table 2 part the 10th table

Q: With `O=C1CCN(C(=O)[C@@H]2C[C@H]2CN2CCN(c3csc4cc(C(F)(F)F)ccc34)CC2)CC1` [compound 826901] as the compound, how does the Ki read?
A: 42.4 nM

same assay, conditions: read-out: D3 Ki

Q: How did the Ki turn out when `O=C(NCCCn1ccnc1)[C@@H]1C[C@H]1CN1CCN(c2noc3ccsc23)CC1` [compound 831493, 2R-(4-Thieno[2,3-d]isoxazol-3-yl-piperazin-1-ylmethyl)-1 R-cyclopropanecarboxylic acid (3-imidazol-1-yl-propyl)-amide] was run?
A: 4.95 nM

Q: Which Ki does the source give for `COc1ccc2c(c1)c(N1CCN(C[C@@H]3C[C@H]3C(=O)NC[C@H]3CCN(C(=O)OC(C)(C)C)C3)CC1)nn2C` [compound 833630] here?
A: 52.1 nM

Q: `Cn1nc(C2CCN(C[C@@H]3C[C@H]3C(=O)NCCCn3ccnc3)CC2)c2cccc(C(F)(F)F)c21` [compound 832654, 2R-[4-(1-Methyl-7-trifluoromethyl-1 H-indazol-3-yl)-piperidin-1-ylmethyl]-1 R-cycloproanecarboxylic acid (3-imidazol-1-yl-propyl)-amide] was tested. Which Ki did it give?
A: 4.72 nM

Q: Which Ki does the source give for `O=C(NC1CCN(Cc2ccc(F)cc2)CC1)[C@@H]1C[C@H]1CN1CCN(c2csc3cc(C(F)(F)F)ccc23)CC1` [compound 832738] here?
A: 3.26 nM

Q: With `O=C(NCCCn1cccn1)[C@@H]1C[C@H]1CN1CCC(c2noc3ccsc23)CC1` [compound 831273] as the compound, how does the Ki read?
A: 68.6 nM

Q: Which Ki does the source give for `O=C(NCCCc1ccccc1)[C@@H]1C[C@H]1CN1CCC(c2cc3ccccc3s2)CC1` [compound 831489] here?
A: 16.9 nM

Q: With `C[C@H]1CC[C@H](NC(=O)[C@@H]2C[C@H]2CN2CCN(c3nn(-c4cccc(F)c4)c4ccsc34)CC2)CC1` [compound 833856] as the compound, how does the Ki read?
A: 3.01 nM

Q: `C[C@H]1CC[C@H](NC(=O)[C@@H]2C[C@H]2CN2CCN(c3nn(-c4ccc(OC(F)(F)F)cc4)c4ccsc34)CC2)CC1` [compound 833876] was tested. Which Ki did it give?
A: 50.3 nM

same assay, conditions: read-out: d3Ki

Q: `C[C@H]1CC[C@H](NC(=O)[C@@H]2C[C@H]2CN2CCN(c3ncccc3C(F)(F)F)CC2)CC1` [compound 827183] was tested. Which Ki did it give?
A: 3.29 nM

Q: How did the Ki turn out when `O=C(NCc1nc2ccccc2[nH]1)[C@@H]1CCCC[C@@H]1CN1CCN(c2csc3cc(C(F)(F)F)ccc23)CC1` [compound 826102] was run?
A: 210 nM

Q: Which Ki does the source give for `O=C(NCc1cccc2ccccc12)[C@@H]1CCC[C@H]1N1CCN(c2csc3cc(F)ccc23)CC1` [compound 826059] here?
A: 27.1 nM

Q: `CC(NC(=O)[C@@H]1CCC[C@H]1N1CCN(c2csc3cc(F)ccc23)CC1)c1ccccc1` (some centres unmarked) [compound 826058] was tested. Which Ki did it give?
A: 45.2 nM

Q: `CC[C@H]1CC[C@H](NC(=O)[C@@H]2C[C@H]2CN2CCN(c3csc4cc(F)ccc34)CC2)CC1` [compound 826667] was tested. Which Ki did it give?
A: 2.5 nM

Q: For `O=C(N[C@H]1CCCC[C@@H]1O)[C@@H]1C[C@H]1CN1CCN(c2csc3cc(C(F)(F)F)ccc23)CC1` [compound 826892], which Ki is on record?
A: 25.9 nM

Q: Which Ki does the source give for `CC(=O)c1ccc(N2CCN(C[C@@H]3C[C@H]3C(=O)N[C@H]3CC[C@H](C)CC3)CC2)cc1` [compound 827206] here?
A: 59.7 nM

Q: With `C[C@H]1CC[C@H](NC(=O)[C@@H]2C[C@H]2CN2CCN(c3ccco3)CC2)CC1` [compound 827189] as the compound, how does the Ki read?
A: 126 nM

Q: With `O=C(NCc1ccccn1)[C@@H]1CCCC[C@H]1CN1CCN(c2csc3cc(C(F)(F)F)ccc23)CC1` [compound 826120] as the compound, how does the Ki read?
A: 487 nM

Q: How did the Ki turn out when `O=C(NC1CCCCC1)[C@@H]1CCCC[C@@H]1CN1CCN(c2csc3cc(C(F)(F)F)ccc23)CC1` [compound 826113] was run?
A: 200 nM

Q: For `O=C(NCc1cccs1)[C@@H]1CCC[C@H]1N1CCN(c2csc3cc(F)ccc23)CC1` [compound 825832], which Ki is on record?
A: 60.3 nM

Q: `O=C(NCc1ccc2c(c1)OCO2)[C@@H]1CCCC[C@@H]1CN1CCN(c2csc3cc(C(F)(F)F)ccc23)CC1` [compound 826115] was tested. Which Ki did it give?
A: 72.3 nM

Q: For `CC[C@H]1CC[C@H](NC(=O)[C@@H]2C[C@H]2CN2CCN(c3ccccn3)CC2)CC1` [compound 827214], which Ki is on record?
A: 6.13 nM
